# Measurements taken from patent US20250099634A1, “METHOD OF TREATING CANCER” (Novartis AG, priority 2023, published 2025).
# Legend:
# [1] = NETTER-2 worst post-baseline biochemistry abnormalities based on CTC grades (Safety Set); assay type: in vivo, human
# Text: The laboratory assessments require that blood samples for hematology and blood chemistry, and a urine sample for urinalysis are taken. Laboratory assessments will be performed at the investigational site.
# Blood tests performed 4 weeks after any treatment cannot serve as baseline values for the next treatment.
# All laboratory data will be listed by treatment group, subject, and visit/time and if normal ranges are available abnormalities will be flagged. Summary statistics will be provided by treatment and visit/time. Shift tables using the low/normal/high/(low and high) classification will be used to compare baseline to the worst on-treatment value.
# Grading of laboratory values will be assigned programmatically as per NCI Common Terminology Criteria for Adverse Events (CTCAE) version 5.0 or current version. The calculation of CTCAE grades will be based on the observed laboratory values only, clinical assessments will not be taken into account.
# The following summaries will be generated separately for hematology, and biochemistry tests: • 1. Listing of all laboratory data with values flagged to show the corresponding CTCAE grades if applicable and the classifications relative to the laboratory normal ranges • 2. For laboratory tests where grades are defined by CTCAE, • 3. Worst post-baseline CTCAE grade (regardless of the baseline status). Each subject will be counted only once for the worst grade observed post-baseline. • 4. Shift tables using CTCAE grades to compare baseline to the worst on-treatment value • 5. For laboratory tests where grades are not defined by CTCAE, • 6. Shift tables using the low/normal/high/(low and high) classification to compare baseline to the worst on-treatment value.
# [2] = tested on: Grade 2 and Grade 3 advanced GEP-NET; test: NETTER-2 best overall response, ORR and DCR, central review using RECIST 1.1; assay type: in vivo, human; details: for ORR: central assessment
# Text: Objective Response Rate (ORR) will be calculated as the rate of patients with a best overall response of partial response (PR) or complete response (CR). Response duration will be calculated from the time of initial response until documented tumor progression. The Duration of Response (DOR) is defined as the time from initially meeting the criteria for response (CR or PR) until the time of progression by RECIST or death due to underlying disease. DOR will be reported descriptively for each group without comparison between groups.
# Overall response rate (ORR) is defined as the proportion of subjects with best overall response (BOR) of complete response (CR) or partial response (PR), as per central review and according to RECIST 1.1.
# ORR will be calculated based on the FAS and according to the ITT principle. ORR and its 95% confidence interval will be presented by treatment group. The Cochran-Mantel-Haenszel chi-square test, stratified by the randomization stratification factors, will be used to compare ORR between the two treatment groups, at the 1-sided 2.5% level of significance. As a supportive analysis, ORR as per local review will be presented by treatment group, along with 95% confidence intervals.
# More precisely, it counts the presence of at least one confirmed CR or confirmed PR or SD. The DCR will be calculated based on FAS according to the ITT principle. DCR and its 95% confidence interval will be presented by treatment group. The Cochrane-Mantel-Haenszel chi-square test, stratified by the randomization stratification factors, will be used to compare DCR between the two treatment groups, at the one-sided 2.5% level of significance. The p-value to be generated using the Cochrane-Mantel-Haenszel chi-square test is considered nominal, and not to be considered confirmatory as it is not part of the testing strategy. The SAP will advise on how to proceed in case of few events in any stratum.
# [3] = All grades (CTCAE v5.0), randomized treatment period, Safety Set
# [4] = Grade 3/4 (CTCAE v5.0), randomized treatment period, Safety Set
# [5] = central review, Full Analysis Set
smiles,measurement,setting,value
"C[C@@H](O)[C@H](NC(=O)[C@@H]1CSSC[C@H](NC(=O)[C@@H](Cc2ccccc2)NC(=O)CN2CCN(CC(=O)[O-])CCN(CC(=O)[O-])CCN(CC(=O)[O-])CC2)C(=O)N[C@@H](Cc2ccc(O)cc2)C(=O)N[C@H](Cc2c[nH]c3ccccc23)C(=O)N[C@@H](CCCCN)C(=O)N[C@@H]([C@@H](C)O)C(=O)N1)C(=O)O.[177Lu+3] [Lutathera, ^177Lu-DOTA^0-Tyr^3-Octreotate]",Worst post-baseline abnormality: Bilirubin (umol/L)-Increase,[1]; [3],26 (17.7) n (%)
same,Worst post-baseline abnormality: Creatinine (umol/L)-Increase,[1]; [3],30 (20.4) n (%)
same,Worst post-baseline abnormality: Sodium (mmol/L)-Decrease,[1]; [3],32 (21.8) n (%)
same,Worst post-baseline abnormality: Gamma Glutamyl Transferase (U/L)-Increase,[1]; [4],38 (25.9) n (%)
same,Grade 3/4 biochemical lab abnormality: aspartate aminotransferase increase,[1]; in vivo,2.7%
same,Grade 3/4 biochemical lab abnormality: bilirubin increase,[1]; in vivo,2.7%
same,Worst post-baseline abnormality: Alanine Aminotransferase (U/L)-Increase,[1]; in vivo,6 (4.1) n (%)
same,Worst post-baseline abnormality: Bilirubin (umol/L)-Increase,[1]; in vivo,4 (2.7) n (%)
same,Worst post-baseline abnormality: Creatinine (umol/L)-Increase,[1]; in vivo,0 n (%)
same,Worst post-baseline abnormality: Gamma Glutamyl Transferase (U/L)-Increase,[1]; in vivo,102 (69.4) n (%)
same,Worst post-baseline abnormality: Sodium (mmol/L)-Decrease,[1]; in vivo,1 (0.7) n (%)
same,Grade 3/4 biochemical lab abnormality: GGT increase,[1]; randomized treatment period,25.9%
same,Best Overall Response: Complete Response (CR),[2]; [5],8 (5.3) n (%)
same,Best Overall Response: Non-CR/Non-PD,[2]; [5],0 n (%)
same,Best Overall Response: Partial Response (PR),[2]; [5],57 (37.7) n (%)
same,Best Overall Response: Progressive Disease (PD),[2]; [5],8 (5.3) n (%)
same,Best Overall Response: Unknown,[2]; [5],6 (4.0) n (%)
same,Disease Control Rate (DCR: CR+PR+SD+Non-CR/Non-PD),[2]; [5],137 (90.7) n (%)
same,Overall Response Rate (ORR: CR + PR),[2]; [5],65 (43.0) n (%)
"C[C@@H](O)[C@@H]1NC(=O)[C@H](CCCCN)NC(=O)[C@@H](Cc2c[nH]c3ccccc23)NC(=O)[C@H](Cc2ccccc2)NC(=O)[C@@H](NC(=O)[C@H](N)Cc2ccccc2)CSSC[C@@H](C(=O)N[C@H](CO)[C@@H](C)O)NC1=O [Octreotide LAR, octreotide]",Worst post-baseline abnormality: Alanine Aminotransferase (U/L)-Increase,[1]; [3],38 (52.1) n (%)
same,Worst post-baseline abnormality: Albumin (g/L)-Decrease,[1]; [3],17 (23.3) n (%)
same,Worst post-baseline abnormality: Alkaline Phosphatase (U/L)-Increase,[1]; [3],40 (54.8) n (%)
same,Worst post-baseline abnormality: Aspartate Aminotransferase (U/L)-Increase,[1]; [3],40 (54.8) n (%)
same,Worst post-baseline abnormality: Bilirubin (umol/L)-Increase,[1]; [3],17 (23.3) n (%)
same,Worst post-baseline abnormality: Calcium Corrected (mmol/L)-Increase,[1]; [3],8 (11.0) n (%)
same,Worst post-baseline abnormality: Creatinine (umol/L)-Increase,[1]; [3],15 (20.5) n (%)
same,Worst post-baseline abnormality: Potassium (mmol/L)-Decrease,[1]; [3],10 (13.7) n (%)
same,Worst post-baseline abnormality: Potassium (mmol/L)-Increase,[1]; [3],16 (21.9) n (%)
same,Worst post-baseline abnormality: Sodium (mmol/L)-Decrease,[1]; [3],12 (16.4) n (%)
same,Worst post-baseline abnormality: Sodium (mmol/L)-Increase,[1]; [3],6 (8.2) n (%)
same,Worst post-baseline abnormality: Alanine Aminotransferase (U/L)-Increase,[1]; [4],3 (4.1) n (%)
same,Worst post-baseline abnormality: Albumin (g/L)-Decrease,[1]; [4],1 (1.4) n (%)
same,Worst post-baseline abnormality: Alkaline Phosphatase (U/L)-Increase,[1]; [4],3 (4.1) n (%)
same,Worst post-baseline abnormality: Aspartate Aminotransferase (U/L)-Increase,[1]; [4],5 (6.8) n (%)
same,Worst post-baseline abnormality: Bilirubin (umol/L)-Increase,[1]; [4],4 (5.5) n (%)
same,Worst post-baseline abnormality: Calcium Corrected (mmol/L)-Increase,[1]; [4],1 (1.4) n (%)
same,Worst post-baseline abnormality: Creatinine (umol/L)-Increase,[1]; [4],1 (1.4) n (%)
same,Worst post-baseline abnormality: Potassium (mmol/L)-Decrease,[1]; [4],2 (2.7) n (%)
same,Worst post-baseline abnormality: Potassium (mmol/L)-Increase,[1]; [4],3 (4.1) n (%)
same,Worst post-baseline abnormality: Sodium (mmol/L)-Decrease,[1]; [4],1 (1.4) n (%)
same,Worst post-baseline abnormality: Sodium (mmol/L)-Increase,[1]; [4],0 n (%)
same,Grade 3/4 biochemical lab abnormality: GGT increase,[1]; randomized treatment period,28.8%
same,Grade 3/4 biochemical lab abnormality: aspartate aminotransferase increase,[1]; randomized treatment period,6.8%
same,Grade 3/4 biochemical lab abnormality: bilirubin increase,[1]; randomized treatment period,5.5%
same,ORR,[2]; listed as High-dose Octreotide,9.3%
same,ORR,[2]; listed as high-dose Octreotide,"9.3% (3.8%, 18.3%) for Lutathera vs. high-dose"
same,Best Overall Response: Complete Response (CR),[2]; [5],0 n (%)
same,Best Overall Response: Non-CR/Non-PD,[2]; [5],1 (1.3) n (%)
same,Best Overall Response: Partial Response (PR),[2]; [5],7 (9.3) n (%)
same,Best Overall Response: Progressive Disease (PD),[2]; [5],14 (18.7) n (%)
same,Best Overall Response: Unknown,[2]; [5],11 (14.7) n (%)
same,Overall Response Rate (ORR: CR + PR),[2]; [5],7 (9.3) n (%)
